The record followed here is ChEMBL document CHEMBL2151008, “Enhanced ROS production and cell death through combined photo- and sono-activation of conventional photosensitising drugs” (2011).

Activity calls are given as the source filed them. The rule behind the calls is not given here.

For assay [1], the system named is CHO. In words: Cytotoxicity against CHO cells assessed as cell death at 0.1 to 100 uM after 3 hrs followed by photo-irradiation for 30 secs measured 24 hrs post irradiation by MTT assay. It is filed as functional, cell-based. As to conditions: Cricetulus griseus.
The nature of assay [2]: ROS-generating activity of the photo-irradiated compound assessed as singlet oxygen generation measuring reduction in absorbance at 410 nm at 5 uM by DPBF oxidation method. Set-up: scale not given: the % may be the effect or the level left.
Assay [3] relates to CHO. Briefly: Cytotoxicity against CHO cells assessed as cell death at 0.1 to 100 uM after 3 hrs followed by sono-irradiation for 30 secs measured 24 hrs post irradiation by MTT assay. It is filed as functional, cell-based. To be noted: Cricetulus griseus.
The nature of assay [4]: ROS-generating activity of the sono-irradiated compound assessed as singlet oxygen generation measuring reduction in absorbance at 410 nm at 5 uM by DPBF oxidation method. On the set-up: scale not given: the % may be the effect or the level left.
A short description of assay [5]: ROS-generating activity of the photo/sono-irradiated compound assessed as singlet oxygen generation measuring reduction in absorbance at 410 nm at 5 uM by DPBF oxidation method. On the set-up: scale not given: the % may be the effect or the level left.
The subject of assay [6] is CHO. Briefly: Cytotoxicity against CHO cells assessed as cell death at 0.1 to 100 uM after 3 hrs followed by photo/sono-irradiation for 30 secs measured 24 hrs post irradiation by MTT assay. It is filed as functional, cell-based. To be noted: Cricetulus griseus.
Assay [7] relates to CHO. In words: Cytotoxicity against CHO cells assessed as cell viability at 100 uM after 3 hrs by MTT assay. As to conditions: Cricetulus griseus, read-out: Activity. It is filed as functional.
Assay [8] concerns CHO. In words: Cytotoxicity against CHO cells assessed as cell death at 100 uM after 3 hrs followed by photo/sono-irradiation for 30 secs measured 24 hrs post irradiation by MTT assay relative to sono-irradiated cells. The format is functional, Cricetulus griseus.
The test system of assay [9] is CHO. Briefly: Cytotoxicity against CHO cells assessed as cell death at 100 uM after 3 hrs followed by photo/sono-irradiation for 30 secs measured 24 hrs post irradiation by MTT assay relative to photo-irradiated cells. The format is functional, Cricetulus griseus.
Assay [10] has as its system CHO. Briefly: Cytotoxicity against CHO cells assessed as cell death at 100 uM after 3 hrs followed by sono-irradiation for 30 secs measured 24 hrs post irradiation by MTT assay. The format is functional, Cricetulus griseus.
Assay [11] relates to CHO. Briefly: Cytotoxicity against CHO cells after 3 hrs followed by sono-irradiation for 30 secs measured 24 hrs post irradiation by MTT assay. The format is functional, Cricetulus griseus.
Assay [12] has as its system CHO. In words: Cytotoxicity against CHO cells after 3 hrs followed by photo-irradiation for 30 secs measured 24 hrs post irradiation by MTT assay. The format is functional, Cricetulus griseus.
For assay [13], the system named is CHO. Briefly: Cytotoxicity against CHO cells assessed as cell death at 100 uM after 3 hrs followed by photo/sono-irradiation for 30 secs measured 24 hrs post irradiation by MTT assay. It is filed as functional, Cricetulus griseus.
Assay [14] has as its system CHO. In words: Cytotoxicity against CHO cells after 3 hrs followed by photo/sono-irradiation for 30 secs measured 24 hrs post irradiation by MTT assay. The format is functional, Cricetulus griseus.
For assay [15], the system named is CHO. Briefly: Cytotoxicity against CHO cells after 3 hrs by MTT assay. The format is functional, Cricetulus griseus.
Assay [16] relates to CHO. Briefly: Cytotoxicity against CHO cells assessed as cell death at 100 uM after 3 hrs followed by photo-irradiation for 30 secs measured 24 hrs post irradiation by MTT assay. It is filed as functional, Cricetulus griseus.

As for `CN(C)c1ccc2nc3ccc(=[N+](C)C)cc-3sc2c1`, the result in the assay on CHO [1], in the assay with CHO [3] and in the assay with CHO [6] was Active. Also, the Activity in [2] stood at 38.8%; in assay [4], 40.1%; in assay [5], 71.8%.

With `CN(C)c1ccc2nc3ccc(N(C)C)cc3[s+]c2c1.[Cl-]` [METHYLENE BLUE ANHYDROUS], the viability at 100 µM with CHO [7] turned out to be 80%. Besides, in the assay with CHO [8], the Activity came to 43%. Further, in the assay with CHO [9], the “fold change (FC)” value was 2.

Consider `O=C([O-])c1c(Cl)c(Cl)c(Cl)c(Cl)c1-c1c2cc(I)c(=O)c(I)c-2oc2c(I)c([O-])c(I)cc12.[Na+].[Na+]` [ROSE BENGAL SODIUM], for which the Activity in the assay on CHO [10] was found to be 95%; in assay [2], 44.7%; in the assay on CHO [13], 95%; in assay [4] it was 58.4%; in assay [5], 74.9%; with CHO [16], 95%. The LD50 in the assay on CHO [11] was 38.5 µmol; in the assay with CHO [12], 3.3 µmol; in the assay on CHO [14], 2 µmol; in the assay with CHO [15], 138.4 µmol. Moreover, the viability at 100 µM in the assay with CHO [7] was 65%.
